# Experimental data from ChEMBL document CHEMBL1133226, “Combinatorial diversification of indinavir: in vivo mixture dosing of an HIV protease inhibitor library” (Bioorg Med Chem Lett, 2000).
# What was measured:
# [1] = test system: MT4; experiment: Compound was tested in vitro for inhibition of spread of viral infection in MT-4 human T-lymphoid cells infected with the IIIb isolate; format: functional; conditions: read-out: CIC95
# [2] = target: Human immunodeficiency virus type 1 protease (Human immunodeficiency virus 1, UniProt Q72874); experiment: In vitro inhibitory concentration to prevent cleavage of a substrate by the protease enzyme
Structure (SMILES),IC95 [1] [nM],IC50 [2] [nM]
CC(C)(C)NC(=O)[C@@H]1CN(S(C)(=O)=O)CCN1C[C@@H](O)C[C@@H](Cc1ccccc1)C(=O)N[C@H]1c2ccccc2C[C@H]1O,400,1.6
CC(C)(C)NC(=O)[C@@H]1CN(Cc2ccc(Cl)c(Cl)c2)CCN1C[C@@H](O)C[C@@H](Cc1ccccc1)C(=O)N[C@H]1c2ccccc2C[C@H]1O,200,1.1
CC(C)(C)NC(=O)[C@@H]1CN(Cc2cccnc2)CCN1C[C@@H](O)C[C@@H](Cc1ccccc1)C(=O)N[C@H]1c2ccccc2C[C@H]1O [INDINAVIR],50.5,–
